Experimental findings from patent publication EP4567035A1, “NOVEL COMPOUND AS HYPOXIA-INDUCIBLE FACTOR 1(HIF-1) INHIBITOR OR VASCULAR ENDOTHELIAL GROWTH FACTOR (VEGF) INHIBITOR, AND PHARMACEUTICAL COMPOSITION COMPRISING SAME” (Nextgen Bioscience Co., Ltd., priority 2022, dated 2024) are described below.

The structures appear in SMILES notation. Where two headings read alike, the source gives them in different places.

One experiment has as its target T1, HIF-1α (Homo sapiens, UniProt Q16665).
T1 construct: endogenous in cells; host or cells: ARPE-19 (ATCC CRL-2302)
Kind of experiment: Analysis of HIF-1α protein expression (Western blot) in ARPE-19 cells under mixed hypoxic condition. Format: cell-based. Particulars: concentration range at which HIF-1α expression is reduced by 50% vs untreated control. The method, boiled down: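 ARPE-19 cells were pretreated 16 h or 2 h with compound (0.1 nM–10 µM, serum-free DMEM/F12), then held 1 h or 24 h in mixed hypoxia (1% O2 plus CoCl2). HIF-1α was quantified by Western blot against β-actin; the concentration range giving ≥50% reduction vs untreated control was reported.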
(In general: In western blotting, separated proteins are transferred to a membrane and probed.)

The test system of the next experiment is VEGF. Kind of experiment: Evaluation of VEGF protein secretion level (Human VEGF ELISA) in ARPE-19 cell medium under hypoxic conditions. It counts as cell-based. The method, boiled down: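 Human ARPE-19 cells were pretreated 2 h with compound (0.1 nM–10 µM, in DMEM/F12 with 1% FBS), then held 24 h in hypoxia (1% O2, 5% CO2). Secreted VEGF in the supernatant was quantified by ELISA (A450). The value is the concentration range giving ≥50% VEGF reduction versus untreated control.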
For orientation: In an ELISA, binding on a coated surface is turned into a signal by an enzyme label.

Where [1] appears, read: values marked * in the table, mixed hypoxic condition (1% oxygen + CoCl2) for 24 hours, read-out: IC50 HIF-1α, Hypoxia(24h).
Where [2] appears, read: ARPE-19 cells, pretreated 2 hours, 24 hours hypoxic conditions, secreted VEGF in medium supernatant by ELISA, concentration range reducing VEGF by 50% vs untreated control, read-out: IC50 VEGF.
[3] abbreviates: mixed hypoxic condition (1% oxygen + CoCl2) for 1 hour, read-out: IC50 HIF-1α Hypoxia (1 hour).
Setting [4] is: ARPE-19 cells, pretreated 2 hours, 24 hours hypoxic conditions, ELISA, read-out: concentration at which the secreted VEGF protein level was suppressed to less than 50%.
Setting [5] is: Experimental Example 2 (HIF-1α Western blot), read-out: concentration at which the expression level of VEGF was suppressed to less than 50%.

T1 sequence (Q16665 whole entry): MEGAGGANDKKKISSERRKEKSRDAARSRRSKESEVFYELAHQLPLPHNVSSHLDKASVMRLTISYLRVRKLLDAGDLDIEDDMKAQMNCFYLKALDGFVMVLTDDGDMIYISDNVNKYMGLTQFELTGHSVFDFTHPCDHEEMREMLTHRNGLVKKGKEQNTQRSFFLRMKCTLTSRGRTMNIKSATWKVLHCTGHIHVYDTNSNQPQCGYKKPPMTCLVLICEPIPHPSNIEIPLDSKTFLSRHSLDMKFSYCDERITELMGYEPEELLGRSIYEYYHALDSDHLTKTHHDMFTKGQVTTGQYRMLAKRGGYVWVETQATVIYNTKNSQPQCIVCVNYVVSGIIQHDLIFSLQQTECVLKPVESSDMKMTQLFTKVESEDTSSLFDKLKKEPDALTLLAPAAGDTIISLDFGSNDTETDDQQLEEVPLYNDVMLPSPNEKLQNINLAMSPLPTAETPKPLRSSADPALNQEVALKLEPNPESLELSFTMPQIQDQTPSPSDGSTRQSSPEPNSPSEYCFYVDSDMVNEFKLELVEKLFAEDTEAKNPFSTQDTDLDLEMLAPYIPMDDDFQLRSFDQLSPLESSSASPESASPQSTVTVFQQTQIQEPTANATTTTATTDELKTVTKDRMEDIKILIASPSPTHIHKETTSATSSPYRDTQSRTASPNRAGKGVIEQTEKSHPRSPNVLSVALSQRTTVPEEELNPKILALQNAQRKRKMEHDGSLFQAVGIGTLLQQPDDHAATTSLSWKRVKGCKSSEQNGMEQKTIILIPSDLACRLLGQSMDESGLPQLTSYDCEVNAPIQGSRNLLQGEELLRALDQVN

Consider `CS(=O)(=O)c1cc(Br)ccc1-n1cc(-c2cc(F)cc(CNC(=O)c3ncnc4nc(C5CCCC5)[nH]c34)c2)cn1` [Example 59, N-(3-(1-(4-bromo-2-(methylsulfonyl)phenyl)-1H-pyrazol-4-yl)-5-fluorobenzyl)-8-cyclopentyl-7H-purine-6-carboxamide], for which the DC50 at HIF-1α (setting [1]) was in the range of 100 to 1000 nM. Besides, the IC50 with VEGF (setting [2]) was 100 to 1000 nM.
As to `O=C(NCc1cc(F)cc(-c2cnn(-c3ccc(F)c(F)c3)c2)c1)c1ncnc2nc(C3CCCC3)[nH]c12` [Example 60, 8-Cyclopentyl-N-(3-(1-(3,4-difluorophenyl)-1H-pyrazol-4-yl)-5-fluorobenzyl)-7H-purine-6-carboxamide], the DC50 on HIF-1α (setting [1]) is less than 100 nM. In the experiment with VEGF (setting [2]), the IC50 lay in the range of 100 to 1000 nM.
Regarding `CN1CCC[C@H]1c1nc2ncnc(C(=O)NCc3cc(F)cc(-c4cnn(C)c4)c3)c2[nH]1` [Example 63, (S)-N-(3-fluoro-5-(1-methyl-1H-pyrazol-4-yl)benzyl)-8-(1-methylpyrrolidin-2-yl)-7H-purine-6-carboxamide], the DC50 on HIF-1α (setting [3]) is 100 to 1000 nM. Also, the IC50 in the experiment on VEGF (setting [2]) was in the range of 1000 to 10000 nM.
The like results for `CN1CCC[C@@H]1c1nc2ncnc(C(=O)NCc3cc(F)cc(-c4cnn(C)c4)c3)c2[nH]1` [Example 66, (R)-N-(3-fluoro-5-(1-methyl-1H-pyrazol-4-yl)benzyl)-8-(1-methylpyrrolidin-2-yl)-7H-purine-6-carboxamide] were, in that order, less than 100 nM and 1000 to 10000 nM.
Consider `Cn1cc(-c2cc(F)cc(CNC(=O)c3ncnc4nc(C5CC6C(C5)C6(F)F)[nH]c34)c2)cn1` (stereo not shown) [Example 77, 8-(6,6-Difluorobicyclo[3.1.0]hexan-3-yl)-N-(3-fluoro-5-(1-methyl-1H-pyrazol-4-yl)benzyl)-7H-purine-6-carboxamide], for which the DC50 at HIF-1α (setting [3]) was in the range of 100 to 1000 nM. Also, in the experiment with VEGF (setting [2]), the IC50 was in the range of 1000 to 10000 nM.
As to `Cn1cc(-c2cc(F)cc(CNC(=O)c3ncnc4nc(C5CC6CC6C5)[nH]c34)c2)cn1` (stereo not shown) [Example 78, 8-(Bicyclo[3.1.0]hexan-3-yl)-N-(3-fluoro-5-(1-methyl-1H-pyrazol-4-yl)benzyl)-7H-purine-6-carboxamide], the DC50 at HIF-1α (setting [1]) was less than 100 nM. Moreover, in the experiment on VEGF (setting [2]), the IC50 lay within 100 to 1000 nM.
On the same counts, the results for `O=C(NCc1cc(F)cc(-c2cnn(-c3ccc(F)cc3)c2)c1)c1ncnc2nc(C3CCC(F)(F)C3)[nH]c12` (stereo not shown) [Example 80, 8-(3,3-Difluorocyclopentyl)-N-(3-fluoro-5-(1-(4-fluorophenyl)-1H-pyrazol-4-yl)benzyl)-7H-purine-6-carboxamide] are less than 100 nM and less than 100 nM.
On the same counts, the results for `O=C(NCc1cc(F)cc(-c2cnn(-c3cccc(F)c3)c2)c1)c1ncnc2nc(C3CCC(F)(F)C3)[nH]c12` (stereo not shown) [Example 81, 8-(3,3-Difluorocyclopentyl)-N-(3-fluoro-5-(1-(3-fluorophenyl)-1H-pyrazol-4-yl)benzyl)-7H-purine-6-carboxamide] are less than 100 nM and 100 to 1000 nM.
As for `O=C(NCc1cc(F)cc(-c2cnn(-c3ccc(F)nc3)c2)c1)c1ncnc2nc(C3CCC(F)(F)C3)[nH]c12` (stereo not shown) [Example 82, 8-(3,3-Difluorocyclopentyl)-N-(3-fluoro-5-(1-(6-fluoropyridin-3-yl)-1H-pyrazol-4-yl)benzyl)-7H-purine-6-carboxamide], at HIF-1α (setting [1]), the DC50 was less than 100 nM. Also, the IC50 with VEGF (setting [4]), with VEGF (setting [2]) and in the experiment on VEGF (setting [5]) was less than 100 nM each time.
For `O=C(NCc1cc(F)cc(-c2cnn(-c3cccnc3)c2)c1)c1ncnc2nc(C3CCC(F)(F)C3)[nH]c12` (stereo not shown) [Example 83, 8-(3,3-Difluorocyclopentyl)-N-(3-fluoro-5-(1-(pyridin-3-yl)-1H-pyrazol-4-yl)benzyl)-7H-purine-6-carboxamide], the DC50 at HIF-1α (setting [1]) is less than 100 nM. Further, the IC50 in the experiment on VEGF (setting [4]), in the experiment with VEGF (setting [2]) and with VEGF (setting [5]) was less than 100 nM throughout.
`O=C(NCc1cc(F)cc(-c2cnn(-c3ccc(F)cc3)c2)c1)c1ncnc2nc([C@H]3CCCO3)[nH]c12` [Example 85, (R)-N-(3-fluoro-5-(1-(4-fluorophenyl)-1H-pyrazol-4-yl)benzyl)-8-(tetrahydrofuran-2-yl)-7H-purine-6-carboxamide]: the DC50 on HIF-1α (setting [1]) is less than 100 nM. The IC50 with VEGF (setting [2]) fell in the range of 1000 to 10000 nM.
Consider `O=C1CC[C@@H](c2nc3ncnc(C(=O)NCc4cc(F)cc(-c5cnn(-c6ccc(F)cc6)c5)c4)c3[nH]2)C1` [Example 86, (R)-N-(3-fluoro-5-(1-(4-fluorophenyl)-1H-pyrazol-4-yl)benzyl)-8-(3-oxocyclopentyl)-7H-purine-6-carboxamide], for which the DC50 at HIF-1α (setting [1]) was 100 to 1000 nM. In the experiment on VEGF (setting [2]), the IC50 is 100 to 1000 nM.
`O=C(NCc1cc(F)cc(-c2cnn(-c3ccc(F)c(Cl)c3)c2)c1)c1ncnc2nc(C3CCCC3)[nH]c12` [Example 87, N-(3-(1-(3-chloro-4-fluorophenyl)-1H-pyrazol-4-yl)-5-fluorobenzyl)-8-cyclopentyl-7H-purine-6-carboxamide]: on HIF-1α (setting [1]), the DC50 was less than 100 nM. For the same molecule, in the experiment with VEGF (setting [2]), the IC50 lay in the range of 100 to 1000 nM.
On the same counts, the results for `O=C1CC[C@H](c2nc3ncnc(C(=O)NCc4cc(F)cc(-c5cnn(-c6ccc(F)cc6)c5)c4)c3[nH]2)C1` [Example 88, (S)-N-(3-fluoro-5-(1-(4-fluorophenyl)-1H-pyrazol-4-yl)benzyl)-8-(3-oxocyclopentyl)-7H-purine-6-carboxamide] are 100 to 1000 nM and 100 to 1000 nM.
`O=C(NCc1cc(F)cc(-c2cnn(-c3ccc(F)cc3)c2)c1)c1ncnc2nc(C3CC(F)(F)C3)[nH]c12` [Example 92, 8-(3,3-Difluorocyclobutyl)-N-(3-fluoro-5-(1-(4-fluorophenyl)-1H-pyrazol-4-yl)benzyl)-7H-purine-6-carboxamide]: the DC50 on HIF-1α (setting [1]) was 100 to 1000 nM. Further, in the experiment on VEGF (setting [2]), the IC50 was 100 to 1000 nM.
In the case of `O=C(NCc1cc(F)cc(-c2cnn(-c3ccc(F)cc3)c2)c1)c1nccc2nc(C3CCCC3)[nH]c12` [Example 93, 2-Cyclopentyl-N-(3-fluoro-5-(1-(4-fluorophenyl)-1H-pyrazol-4-yl)benzyl)-3H-imidazo[4,5-c]pyridine-4-carboxamide], the DC50 on HIF-1α (setting [1]) was less than 100 nM. In addition, the IC50 in the experiment with VEGF (setting [2]) was in the range of 100 to 1000 nM.
In the case of `O=C(NCc1cccc(-c2cnn(-c3ccc(F)cc3)c2)c1F)c1ncnc2nc(C3CCCC3)[nH]c12` [Example 95, 8-Cyclopentyl-N-(2-fluoro-3-(1-(4-fluorophenyl)-1H-pyrazol-4-yl)benzyl)-7H-purine-6-carboxamide], the DC50 on HIF-1α (setting [1]) was 100 to 1000 nM. Moreover, the IC50 in the experiment with VEGF (setting [2]) lay within 100 to 1000 nM.
Take `CC1(C)CC(c2nc3ncnc(C(=O)NCc4cc(F)cc(-c5cnn(-c6ccc(F)cc6)c5)c4)c3[nH]2)C1` [Example 97, 8-(3,3-Dimethylcyclobutyl)-N-(3-fluoro-5-(1-(4-fluorophenyl)-1H-pyrazol-4-yl)benzyl)-7H-purine-6-carboxamide]: the DC50 on HIF-1α (setting [1]) lay in the range of 100 to 1000 nM. Besides, in the experiment with VEGF (setting [2]), the IC50 was 100 to 1000 nM.
Consider `O=C(NCc1cc(F)cc(-c2cnn(-c3ccc(F)cc3)c2)c1)c1ncnc2nc(C3CC4(C3)CC(F)(F)C4)[nH]c12` [Example 98, 8-(6,6-Difluorospiro[3.3]heptan-2-yl)-N-(3-fluoro-5-(1-(4-fluorophenyl)-1H-pyrazol-4-yl)benzyl)-7H-purine-6-carboxamide], for which, on HIF-1α (setting [1]), the DC50 is 1000 to 10000 nM. Moreover, the IC50 in the experiment with VEGF (setting [2]) was more than 10000 nM.
The like results for `O=C(NCc1cc(F)cc(-c2cnn(-c3ccc(F)cc3)c2)c1)c1ncnc2nc(C34CC(C3)C4)[nH]c12` [Example 99, 8-(Bicyclo[1.1.1]pentan-1-yl)-N-(3-fluoro-5-(1-(4-fluorophenyl)-1H-pyrazol-4-yl)benzyl)-7H-purine-6-carboxamide] were, in that order, 1000 to 10000 nM and more than 10000 nM.
The like results for `O=C(NCc1cc(F)cc(-c2cnn(-c3ccc(F)cc3)c2)c1)c1ncnc2nc(C3CC4(CCC4)C3)[nH]c12` [Example 100, N-(3-fluoro-5-(1-(4-fluorophenyl)-1H-pyrazol-4-yl)benzyl)-8-(spiro[3.3]heptan-2-yl)-7H-purine-6-carboxamide] were, in that order, 1000 to 10000 nM and 1000 to 10000 nM.
On the same counts, the results for `O=C(NCc1cc(F)cc(-c2cnn(-c3ccc(F)cc3)c2)c1)c1ncnc2nc(C34CC(F)(C3)C4)[nH]c12` [Example 101, N-(3-fluoro-5-(1-(4-fluorophenyl)-1H-pyrazol-4-yl)benzyl)-8-(3-fluorobicyclo[1.1.1]pentan-1-yl)-7H-purine-6-carboxamide] are 100 to 1000 nM and 1000 to 10000 nM.
On to `O=C(NCc1cc(Cl)cc(-c2cnn(-c3ccc(F)cc3)c2)c1)c1ncnc2nc(C3CCCC3)[nH]c12` [Example 104, N-(3-chloro-5-(1-(4-fluorophenyl)-1H-pyrazol-4-yl)benzyl)-8-cyclopentyl-7H-purine-6-carboxamide], for which, on HIF-1α (setting [1]), the DC50 is less than 100 nM. In the experiment with VEGF (setting [2]), the IC50 was in the range of 100 to 1000 nM.
Consider `O=C(Nc1cc(F)cc(-c2cnn(-c3ccc(F)cc3)c2)c1)c1ncnc2nc(C3CCCC3)[nH]c12` [Example 105, 8-Cyclopentyl-N-(3-fluoro-5-(1-(4-fluorophenyl)-1H-pyrazol-4-yl)phenyl)-7H-purine-6-carboxamide], for which the DC50 at HIF-1α (setting [1]) is more than 10000 nM. Further, in the experiment on VEGF (setting [2]), the IC50 was more than 10000 nM.
